Experimental findings from ChEMBL document CHEMBL1147490, “N-4-methansulfonamidobenzyl-N'-2-substituted-4-tert-butyl-benzyl thioureas as potent vanilloid receptor antagonistic ligands” (Bioorg Med Chem Lett, 2004) are described below.

The target of one test is T1, Vanilloid receptor (Rattus norvegicus, UniProt Q9ERZ8+Q9WUD2+O35433). The test can be described thus: In vitro inhibitory concentration was determined against [45Ca2+]- influx in rat DRG neurons. It is filed as functional.
Molecule `CC(C)(C)c1ccc(C/N=C(\S)NCc2ccc(NS(C)(=O)=O)cc2)c(OCc2ccccc2)c1` returned an IC50 of 0.77 µM.
`CCCCCCOc1cc(C(C)(C)C)ccc1C/N=C(\S)NCc1ccc(NS(C)(=O)=O)cc1`: the IC50 worked out at 0.15 µM.
`COCCOc1cc(C(C)(C)C)ccc1C/N=C(\S)NCc1ccc(NS(C)(=O)=O)cc1` yielded a concentration for half-maximal inhibition (IC50) of 0.06 µM.
Same read-out and setting: for `NC(=O)N1CCN(c2ccccn2)CC1` the value was 0.03 µM; for `CCCCCOc1cc(C(C)(C)C)ccc1C/N=C(\S)NCc1ccc(NS(C)(=O)=O)cc1`, 0.07 µM.
`CC(C)(C)COc1cc(C(C)(C)C)ccc1C/N=C(\S)NCc1ccc(NS(C)(=O)=O)c(F)c1` showed a concentration for half-maximal inhibition (IC50) of 0.066 µM.
The molecule `CC(C)(C)C(=O)Oc1cc(C(C)(C)C)ccc1C/N=C(\S)NCc1ccc(NS(C)(=O)=O)cc1` gave a half-maximal inhibitory concentration (IC50) of 0.22 µM.
The same measure, in the same setting: for `CCCNCC(=O)N(CCC)CC(=O)N(CCC)CC(=O)O` the value was 2 µM; for `CCCCOc1cc(C(C)(C)C)ccc1C/N=C(\S)NCc1ccc(NS(C)(=O)=O)cc1`, 0.06 µM.
Still for that read-out and setting: to `CCCOc1cc(C(C)(C)C)ccc1C/N=C(\S)NCc1ccc(NS(C)(=O)=O)cc1` belongs 0.25 µM.
With `COc1cc(CC/N=C(\S)NCCc2ccccc2)ccc1O`, the 50% inhibitory concentration (IC50) amounted to 0.32 µM.
The same measure, in the same setting: to `Cc1cc(CN/C(S)=N/Cc2ccc(NS(C)(=O)=O)cc2)c(COC(=O)C(C)(C)C)cc1C` belongs 0.07 µM; to `CC(C)(C)C(=O)OCc1cc(C(C)(C)C)ccc1C/N=C(\S)NCc1ccc(NS(C)(=O)=O)c(F)c1`, 0.015 µM; to `CCOc1cc(C(C)(C)C)ccc1C/N=C(\S)NCc1ccc(NS(C)(=O)=O)cc1`, 1.1 µM.
Same read-out and setting: to `CC(C)(C)C(=O)OCc1cc(C(C)(C)C)ccc1C/N=C(\S)NCc1ccc(NS(C)(=O)=O)cc1` belongs 0.07 µM; to `CC(=O)OCc1cc(C(C)(C)C)ccc1C/N=C(\S)NCc1ccc(NS(C)(=O)=O)cc1`, 0.58 µM.
On the same count and under the same terms, for `CC(C)Oc1cc(C(C)(C)C)ccc1C/N=C(\S)NCc1ccc(NS(C)(=O)=O)cc1` the value was 0.35 µM; for `COc1cc(C(C)(C)C)ccc1C/N=C(\S)NCc1ccc(NS(C)(=O)=O)cc1`, 2.4 µM; for `CCCCOc1cc(C(C)(C)C)ccc1C/N=C(\S)NCc1ccc(NS(C)(=O)=O)c(F)c1`, 0.02 µM.
In turn, `COCOc1cc(C(C)(C)C)ccc1C/N=C(\S)NCc1ccc(NS(C)(=O)=O)cc1` showed a half-inhibitory concentration (IC50) of 0.5 µM.
The molecule `N/C(S)=N/N1CCCC1` had an IC50 of 3 µM.
On to `CC(C)(C)COc1cc(C(C)(C)C)ccc1C/N=C(\S)NCc1ccc(NS(C)(=O)=O)cc1`, for which the concentration for half-maximal inhibition (IC50) turned out to be 0.06 µM.
As for `C=C(C)[C@]12C[C@@H](C)[C@@]34O[C@](Cc5ccccc5)(O[C@@H]1[C@@H]3C=C(COC(=O)Cc1cc(I)c(O)c(OC)c1)C[C@]1(O)C(=O)C(C)=C[C@@H]41)O2` [IODORESINIFERATOXIN], the half-maximal inhibitory concentration (IC50) came to 4 µM.

The next test addresses T1, Vanilloid receptor. The test is described as follows: In vitro induction of 45 [Ca2+] influx in rat DRG neurons (ineffective at 30 uM, partial activity). In kind it is functional.
As for `CC(C)(C)c1ccc(CNC(=S)NCc2ccc(NS(C)(=O)=O)c(F)c2)cc1`, the EC50 result was “Partially active”.
In the case of `CC(C)(C)COc1cc(C(C)(C)C)ccc1C/N=C(\S)NCc1ccc(NS(C)(=O)=O)c(F)c1`, the EC50 entry is “Partially active”.
On the same count and under the same terms, for `CC(C)(C)C(=O)OCc1cc(C(C)(C)C)ccc1C/N=C(\S)NCc1ccc(NS(C)(=O)=O)c(F)c1` the value was “Partially active”; for `CCCCOc1cc(C(C)(C)C)ccc1C/N=C(\S)NCc1ccc(NS(C)(=O)=O)c(F)c1`, “Partially active”.

By IC50 is commonly meant the concentration that gives 50% inhibition.
